Laboratory results from ChEMBL document CHEMBL1287668, “Synthesis, antioxidant and toxicological study of novel pyrimido quinoline derivatives from 4-hydroxy-3-acyl quinolin-2-one” (Bioorg Med Chem Lett, 2010).

Legend:
[1] = Antioxidant activity assessed as EDTA chelating effect after 10 mins by spectrophotometric analysis; type: functional
[2] = Antioxidant activity assessed as ferric ion reducing ability by spectrophotometric analysis; type: functional
[3] = Antioxidant activity assessed as super oxide scavenging activity after 150 mins by spectrophotometric analysis; type: functional; parameters: concentration or dose not given beside the values
[4] = Antioxidant activity assessed as nitric oxide scavenging activity after 150 mins by spectrophotometric analysis; type: functional; parameters: concentration or dose not given beside the values
[5] = Antioxidant activity assessed as total reducing activity after 30 mins by spectrophotometric analysis; type: functional
[6] = system: Radical scavenging activity; experiment: Antioxidant activity assessed as DPPH free radical scavenging activity after 30 mins by spectrophotometric analysis; type: functional
[7] = Toxicity in po dosed Wistar rat; type: organism-based; conditions: in vivo
Rattus norvegicus [8] = experiment: Toxicity in Wistar rat assessed as grip strength at 200 mg/kg, po measured after 24 hrs; type: organism-based; parameters: dose 200 mg/kg, route oral; conditions: in vivo
Rattus norvegicus [9] = experiment: Toxicity in Wistar rat assessed as pupil dilatation at 200 mg/kg, po measured after 24 hrs; type: organism-based; parameters: dose 200 mg/kg, route oral; conditions: in vivo
Rattus norvegicus [10] = experiment: Toxicity in Wistar rat fed 4 hrs post dosing assessed as incidence of adverse effects at 2 mg/kg, po administered as single dose measured on day 14; type: organism-based; parameters: dose 2 mg/kg, route oral; conditions: in vivo
Rattus norvegicus [11] = experiment: Toxicity in Wistar rat assessed as incidence of convulsion at 200 mg/kg, po measured after 24 hrs; type: organism-based; parameters: dose 200 mg/kg, route oral; conditions: in vivo
Rattus norvegicus [12] = experiment: Toxicity in Wistar rat fed 4 hrs post dosing assessed as incidence of adverse effects at 2 mg/kg, po administered as single dose measured on day one; type: organism-based; parameters: dose 2 mg/kg, route oral; conditions: in vivo
Rattus norvegicus [13] = experiment: Toxicity in Wistar rat assessed as incidence of tremor at 200 mg/kg, po measured after 24 hrs; type: organism-based; parameters: dose 200 mg/kg, route oral; conditions: in vivo

Row | Structure (SMILES) | Activity [1] [mg] | Activity [2] [mmol] | Activity [3] [%] | Activity [4] [%] | Activity [5] [µmol] | Activity [6] [µg] | MTD [7] [mg/kg] | Activity (Rattus norvegicus [8]) | Activity (Rattus norvegicus [9]) | Activity (Rattus norvegicus [10]) | Activity (Rattus norvegicus [11]) | Activity (Rattus norvegicus [12]) | Activity (Rattus norvegicus [13])
1 | Cc1[nH]nc2c1c(=O)[nH]c1ccccc12 | 10.4 | 150 | 8.7 | 18.5 | 1230 | 1110 |  |  |  |  |  |  | 
2 | CC1=NNC(=O)Nc2c1c(=O)[nH]c1ccccc21 | 12.3 |  | 40.9 | 16.1 | 2590 | 540 |  |  |  |  |  |  | 
3 | CC1=NNC(=S)Nc2c1c(=O)[nH]c1ccccc21 | 9.1 |  | 74.5 | 61.6 | 2650 | 752 | 2000 | Toxic | Toxic | Non-toxic | Toxic | Non-toxic | Toxic
4 | Cc1noc2c1c(=O)[nH]c1ccccc12 | 4.9 | 169 | 16.6 | 40.3 | 4010 | 466 |  |  |  |  |  |  | 
5 | Cc1nc(=O)[nH]c2c1c(=O)[nH]c1ccccc12 | 10.7 | 205 | 38 | 62.3 | 3880 | 1410 | 2000 | Toxic | Toxic | Non-toxic | Toxic | Non-toxic | Toxic
6 | COc1ccc(O)c(C(C)(C)C)c1.COc1ccc(O)cc1C(C)(C)C | 16.1 |  | 76.5 | 79.1 | 8050 | 170 |  |  |  |  |  |  | 
7 | Cc1nc(=S)[nH]c2c1c(=O)[nH]c1ccccc12 | 9.6 | 145 | 22.4 | 12 | 3630 | 1040 |  |  |  |  |  |  | 
8 | Cc1cc(C(C)(C)C)c(O)c(C(C)(C)C)c1 | 13.2 | 134 | 87.1 | 92.1 | 13100 | 150 |  |  |  |  |  |  | 
